Data published in patent US20260200897A1, “4-((5-(3-(4-(PYRIDIN-2-YL)CYCLOPENTYL)-1H-PYRAZOL-3-YL)AMINO)-BENZENESULFONAMIDE DERIVATIVES AND SIMILAR COMPOUNDS AS CDK INHIBITORS FOR THE TREATMENT OF CANCER” (BeOne Medicines I GmbH, priority 2023, published 2026).

How the values were obtained:
CDK2/Cyclin E1 = CDK2/Cyclin E1 (Homo sapiens, UniProt P24941); assay: CDK2/Cyclin E1 TR-FRET biochemical assay, 1 mM ATP; details: 0.15 μM Rb (Ser780)-biotin substrate, 90 min reaction, Table 2
Method: (§1) Compounds disclosed herein were tested for inhibition of CDK2/Cyclin E1 or CDK1/Cyclin B kinase in an assay based on the time-resolved fluorescence-resonance energy transfer (TR-FRET) methodology. The assay was carried out in 384-well low volume black plates in a reaction mixture containing CDK2/Cyclin E1 or CDK1/Cyclin B1, 1 mM ATP for CDK2/Cyclin E1 and CDK1/Cyclin B1, 0.15 μM Rb (Ser780)-biotin substrate and 0-10 μM compound in buffer containing 50 mM HEPES pH7.0, 0.02% NaN3, 0.01% BSA, 0.1 mM Orthovanadate, 50 mM MgCl2, 1 mM DTT and 0.005% Tween-20. The kinase was incubated with compound for 60 minutes at room temperature and the reaction was initiated by the addition of ATP and Rb (Ser780)-biotin substrate. After reaction at room temperature for 90 minutes, an equal volume of stop/detection solution was added according to the manufacture's instruction (Cisbio Bioassays). The stop/detection solution contained Streptavidin-XL665 and Anti-pRb (Ser780) mAb-Eu Cryptate in Detection buffer (Cisbio Bioassays). Plates were incubated at room temperature for 60 minutes, and the TR-FRET signals (ex337 nm, em665 nm/620 nm) were recorded on a PHERAstar FSX plate reader (BMG Labtech). The inhibition percentage of CDK2/Cyclin E1 or CDK1/Cyclin B1 kinase activity in presence of increasing concentrations of compounds was calculated based on the ratio of fluorescence at 665 nm to that at 620 nm. The IC50 for each compound was derived from fitting the data to the four-parameter logistic equation by Dotmatics.

CDK1/Cyclin B1 = CDK1/Cyclin B1 (Homo sapiens, UniProt P06493); assay: CDK1/Cyclin B1 TR-FRET biochemical assay, 1 mM ATP; details: 0.15 μM Rb (Ser780)-biotin substrate, 90 min reaction, Table 2
Method: as §1

Sequence of CDK1/Cyclin B1 (P06493 whole entry): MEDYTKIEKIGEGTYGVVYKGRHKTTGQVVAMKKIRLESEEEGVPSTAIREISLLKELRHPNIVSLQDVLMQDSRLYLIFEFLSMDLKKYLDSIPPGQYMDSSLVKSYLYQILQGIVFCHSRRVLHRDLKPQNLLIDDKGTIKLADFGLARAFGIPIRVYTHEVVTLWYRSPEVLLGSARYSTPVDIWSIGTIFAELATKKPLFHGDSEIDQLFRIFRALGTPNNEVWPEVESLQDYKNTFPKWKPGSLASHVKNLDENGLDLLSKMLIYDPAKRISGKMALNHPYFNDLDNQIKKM
Sequence of CDK1/Cyclin B1 (P14635 whole entry partner): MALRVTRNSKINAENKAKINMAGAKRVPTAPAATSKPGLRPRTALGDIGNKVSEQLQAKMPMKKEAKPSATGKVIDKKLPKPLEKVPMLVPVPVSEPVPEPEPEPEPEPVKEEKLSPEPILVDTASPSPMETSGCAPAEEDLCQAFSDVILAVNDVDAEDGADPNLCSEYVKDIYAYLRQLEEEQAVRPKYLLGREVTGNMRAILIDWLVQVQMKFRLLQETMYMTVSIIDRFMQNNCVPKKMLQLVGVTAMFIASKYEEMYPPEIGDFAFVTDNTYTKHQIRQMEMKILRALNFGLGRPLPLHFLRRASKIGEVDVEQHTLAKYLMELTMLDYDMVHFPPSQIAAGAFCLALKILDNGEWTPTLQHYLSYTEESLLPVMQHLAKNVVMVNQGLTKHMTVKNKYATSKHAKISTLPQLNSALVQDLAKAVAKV

Row | IC50 (CDK2/Cyclin E1) [nM] | IC50 (CDK1/Cyclin B1) [nM] | SMILES
1 | 1040 | > 10000 | Cc1cccc(C2CCC(c3cc(Nc4ccc5c(c4F)CS(=O)(=O)N5)n[nH]3)C2)n1 (centres unmarked) [Example 159, 4-fluoro-5-((5-(3-(6-methylpyridin-2-yl)cyclopentyl)-1H-pyrazol-3-yl)amino)-1,3-dihydrobenzo[c]isothiazole 2,2-dioxide]
2 | 57 | 6710 | CC(C)(C)c1cnc(C2CCC(c3cc(Nc4ccc5c(c4)CN=S5(C)=O)n[nH]3)C2)o1 (single isomer, unassigned) [Example 169c, 5-((5-(3-(5-(tert-butyl)oxazol-2-yl)cyclopentyl)-1H-pyrazol-3-yl)amino)-1-methyl-3H-1λ^4-benzo[d]isothiazole 1-oxide]
3 | 851 | > 10000 | CC(C)(C)c1nnc([C@H]2CC[C@H](c3cc(Nc4ccc5c(c4F)CS(=O)(=O)N5)n[nH]3)C2)o1 (relative stereo) [Example 147, trans-5-((5-(3-(5-(tert-butyl)-1,3,4-oxadiazol-2-yl)cyclopentyl)-1H-pyrazol-3-yl)amino)-4-fluoro-1,3-dihydrobenzo[c]isothiazole 2,2-dioxide]
4 | 12 | 2420 | CC(C)c1cnc(C2CCC(c3cc(Nc4ccc5c(c4)CS(=O)(=O)N5)n[nH]3)C2)o1 (single isomer, unassigned) [Example 138b, cis-5-((5-(3-(5-isopropyloxazol-2-yl)cyclopentyl)-1H-pyrazol-3-yl)amino)-1,3-dihydrobenzo[c]isothiazole 2,2-dioxide]
5 | 4.6 | 685 | CC(C)(C)c1ccnc(C2CCC(c3cc(Nc4ccc5c(c4F)CS(=O)(=O)N5)n[nH]3)C2)c1 (centres unmarked) [Example 155, 5-((5-(3-(4-(tert-butyl)pyridin-2-yl)cyclopentyl)-1H-pyrazol-3-yl)amino)-4-fluoro-1,3-dihydrobenzo[c]isothiazole 2,2-dioxide]
6 | 0.6 | 135 | CN1c2ccc(Nc3cc([C@H]4CC[C@@H](c5ncc(C(C)(C)C)o5)C4)[nH]n3)cc2CS1(=O)=O [Example 141, 5-((5-((1S,3R)-3-(5-(tert-butyl)oxazol-2-yl)cyclopentyl)-1H-pyrazol-3-yl)amino)-1-methyl-1,3-dihydrobenzo[c]isothiazole 2,2-dioxide]
7 | 285 | > 10000 | Cc1cc(C(C)(C)C)cc(C2CCC(c3cc(Nc4ccc5c(c4F)CS(=O)(=O)N5)n[nH]3)C2)n1 (centres unmarked) [Example 164, 5-((5-(3-(4-(tert-butyl)-6-methylpyridin-2-yl)cyclopentyl)-1H-pyrazol-3-yl)amino)-4-fluoro-1,3-dihydrobenzo[c]isothiazole 2,2-dioxide]
8 | 868 | > 10000 | COc1cccc(C2CCC(c3cc(Nc4ccc5c(c4F)CS(=O)(=O)N5)n[nH]3)C2)n1 (centres unmarked) [Example 160, 4-fluoro-5-((5-(3-(6-methoxypyridin-2-yl)cyclopentyl)-1H-pyrazol-3-yl)amino)-1,3-dihydrobenzo[c]isothiazole 2,2-dioxide]
9 | 1020 | > 10000 | CC(C)(C)c1ccc(C2CCC(c3cc(Nc4ccc5c(c4F)CS(=O)(=O)N5)n[nH]3)C2)o1 (centres unmarked) [Example 153, 5-((5-(3-(5-(tert-butyl)furan-2-yl)cyclopentyl)-1H-pyrazol-3-yl)amino)-4-fluoro-1,3-dihydrobenzo[c]isothiazole 2,2-dioxide]
10 | 14 | 1320 | CC(C)c1cnc(C2CCC(c3cc(Nc4ccc5c(c4)CS(=O)(=O)N5C)n[nH]3)C2)o1 (centres unmarked) [Example 143, 5-((5-(3-(5-isopropyloxazol-2-yl)cyclopentyl)-1H-pyrazol-3-yl)amino)-1-methyl-1,3-dihydrobenzo[c]isothiazole 2,2-dioxide]

The remaining lines, values behind:

Row | SMILES | IC50 (CDK2/Cyclin E1) [nM] | IC50 (CDK1/Cyclin B1) [nM]
11 | Cc1cccc(C2CCC(c3cc(Nc4ccc5c(c4F)CNS5(=O)=O)n[nH]3)C2)n1 (centres unmarked) [Example 120, 4-fluoro-5-((5-(3-(6-methylpyridin-2-yl)cyclopentyl)-1H-pyrazol-3-yl)amino)-2,3-dihydrobenzo[d]isothiazole 1,1-dioxide] | 4410 | > 10000
12 | CC(C)(O)c1cnc(C2CCC(c3cc(Nc4ccc5c(c4F)CNS5(=O)=O)n[nH]3)C2)o1 (centres unmarked) [Example 110, 4-fluoro-5-((5-(3-(5-(2-hydroxypropan-2-yl)oxazol-2-yl)cyclopentyl)-1H-pyrazol-3-yl)amino)-2,3-dihydrobenzo[d]isothiazole 1,1-dioxide] | 32 | 7240
13 | CC(C)(C)c1cc(C2CCC(c3cc(Nc4ccc5c(c4F)CNS5(=O)=O)n[nH]3)C2)ncn1 (centres unmarked) [Example 130, 5-((5-(3-(6-(tert-butyl)pyrimidin-4-yl)cyclopentyl)-1H-pyrazol-3-yl)amino)-4-fluoro-2,3-dihydrobenzo[d]isothiazole 1,1-dioxide] | 2120 | > 10000
14 | Cc1nc(C2CCC(c3cc(Nc4ccc5c(c4F)CNS5(=O)=O)n[nH]3)C2)oc1C(C)(C)C (centres unmarked) [Example 111, 5-((5-(3-(5-(tert-butyl)-4-methyloxazol-2-yl)cyclopentyl)-1H-pyrazol-3-yl)amino)-4-fluoro-2,3-dihydrobenzo[d]isothiazole 1,1-dioxide] | 17 | 4470
15 | CC(C)(C)c1cnnc(C2CCC(c3cc(Nc4ccc(S(N)(=O)=O)cc4F)n[nH]3)C2)c1 (centres unmarked) [Example 3, 4-((5-(3-(5-(tert-butyl)pyridazin-3-yl)cyclopentyl)-1H-pyrazol-3-yl)amino)-3-fluorobenzenesulfonamide] | 147 | > 10000
16 | CC(C)(C)c1ccc(C2CCC(c3cc(Nc4cc5c(cc4F)S(=O)(=O)NC5)n[nH]3)C2)nc1 (centres unmarked) [Example 10, 5-((3-(3-(5-(tert-butyl)pyridin-2-yl)cyclopentyl)-1H-pyrazol-5-yl)amino)-6-fluoro-2,3-dihydrobenzo[d]isothiazole 1,1-dioxide] | > 10000 | > 10000
17 | CC(C)(C)c1cnc(C2CCC(c3cc(Nc4cc5c(cc4F)S(=O)(=O)NC5)n[nH]3)C2)o1 (single isomer, unassigned) [Example 17d, 5-((5-(3-(5-(tert-butyl)oxazol-2-yl)cyclopentyl)-1H-pyrazol-3-yl)amino)-6-fluoro-2,3-dihydrobenzo[d]isothiazole 1,1-dioxide] | 2870 | > 10000
18 | CC(C)(C)C1CCC(C2CCC(c3cc(Nc4ccc5c(c4F)CNS5(=O)=O)n[nH]3)C2)O1 (centres unmarked) [Example 104, 5-((5-(3-(5-(tert-butyl)tetrahydrofuran-2-yl)cyclopentyl)-1H-pyrazol-3-yl)amino)-4-fluoro-2,3-dihydrobenzo[d]isothiazole 1,1-dioxide] | 1790 | > 10000
19 | NS(=O)(=O)c1ccc(Nc2cc(C3CCC(c4ncc(C5CC5)o4)C3)[nH]n2)c(F)c1 (centres unmarked) [Example 9, 4-((5-(3-(5-cyclopropyloxazol-2-yl)cyclopentyl)-1H-pyrazol-3-yl)amino)-3-fluorobenzenesulfonamide] | 131 | > 10000
20 | CC(C)(C)c1coc(C2CCC(c3cc(Nc4ccc5c(c4F)CNS5(=O)=O)n[nH]3)C2)n1 (centres unmarked) [Example 94, 5-((5-(3-(4-(tert-butyl)oxazol-2-yl)cyclopentyl)-1H-pyrazol-3-yl)amino)-4-fluoro-2,3-dihydrobenzo[d]isothiazole 1,1-dioxide] | 417 | > 10000
21 | COc1cccc(C2CCC(c3cc(Nc4ccc5c(c4F)CNS5(=O)=O)n[nH]3)C2)n1 (centres unmarked) [Example 121, 4-fluoro-5-((5-(3-(6-methoxypyridin-2-yl)cyclopentyl)-1H-pyrazol-3-yl)amino)-2,3-dihydrobenzo[d]isothiazole 1,1-dioxide] | 3870 | > 10000
22 | CC(C)(C)c1ccc(C2CCC(c3cc(Nc4ccc5c(c4F)CNS5(=O)=O)[nH]n3)C2)nc1 (centres unmarked) [Example 119, 5-((3-(3-(5-(tert-butyl)pyridin-2-yl)cyclopentyl)-1H-pyrazol-5-yl)amino)-4-fluoro-2,3-dihydrobenzo[d]isothiazole 1,1-dioxide] | > 10000 | > 10000
23 | CC(C)(O)Cn1cc(C2CCC(c3cc(Nc4ccc5c(c4F)CNS5(=O)=O)n[nH]3)C2)cn1 (centres unmarked) [Example 102, 4-fluoro-5-((5-(3-(1-(2-hydroxy-2-methylpropyl)-1H-pyrazol-4-yl)cyclopentyl)-1H-pyrazol-3-yl)amino)-2,3-dihydrobenzo[d]isothiazole 1,1-dioxide] | 813 | > 10000
24 | CC(C)(C)c1ccnc(C2CCC(c3cc(Nc4cc5c(cc4F)S(=O)(=O)NC5)n[nH]3)C2)c1 (centres unmarked) [Example 13, 5-((5-(3-(4-(tert-butyl)pyridin-2-yl)cyclopentyl)-1H-pyrazol-3-yl)amino)-6-fluoro-2,3-dihydrobenzo[d]isothiazole 1,1-dioxide] | 462 | > 10000
25 | CC(C)(C)c1cnc(C2CCC(c3cc(Nc4ccc(S(N)(=O)=O)cc4F)n[nH]3)C2)o1 (single isomer, unassigned) [Example 6d, 4-((5-(3-(5-(tert-butyl)oxazol-2-yl)cyclopentyl)-1H-pyrazol-3-yl)amino)-3-fluorobenzenesulfonamide] | 503 | > 10000
